The text below walks through data of US10316056B2, “Chemical compounds and use thereof for improving muscular quality” (BIOPHYTIS, priority 2014, dated 2019).

Series [1] concerns myostatin gene expression in C2C12 cells. In words: Inhibition of myostatin expression in C2C12 cells (qPCR). The format is cell-based. As to conditions: Mus musculus, percentage myostatin gene expression in cells in contact with the compounds related to control cells, C2C12, 6 h. In outline:
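C2C12 myoblasts differentiated to myotubes for 5 days in 2% serum, then treated 6 h with compounds in serum-free, low-glucose (1 g/l) DMEM; IGF-1 100 ng/ml as reference. Myostatin mRNA quantified by RT-qPCR, expressed relative to untreated control as R=2^-ΔΔCt.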
On the technique in general: Quantitative PCR measures a nucleic acid by following its amplification.

For series [2] the following is noted: rat, in vivo, po; for Cexp (coefficient of exposure): male, Wistar.
Protocol: (§1) The pharmacokinetics of the compounds were evaluated orally using male Wistar rats (Charles River). […] The novel compounds according to the invention were administered at a dose of 10 mg/kg of body weight in the form of a mixture of 4 to 6 products. After administration, the blood was sampled from the tail at t=0.25 h, 0.5 h, 1 h, 3 h, 6 h and 8 h. The blood samples were centrifuged and the plasmas removed.
The nature of the next series: in vivo. As to conditions: male, Wistar, rat, po, 10 mg/kg.
Series [3] has as its system S6 kinase (S6K1) phosphorylation in C2C12 cells. In words: Phosphorylation of the S6 kinase in C2C12 cells (ELISA pS6K T389), protein synthesis. The settings on record: Mus musculus, C2C12, 2 h; for activity at 10 µM: read-out: Protein synthesis (percentage increase in S6K phosphorylation in muscle cells); for activity: test compounds and 20E reference (10 μM), read-out: S6K1 phosphorylation level. The format is cell-based, mouse. How it is done:
After several experiments in which the C2C12 cells differentiated into myotubes were incubated in the presence of IGF-1 or 20E for 2 h 30 or 6 h, two screening tests were developed. Thus, the phosphorylation of the S6 protein kinase and the expression of the myostatin gene were studied in order to determine their modulation by a growth hormone or an ecdysone and to characterize these modulations from a statistical point of view.
The C2C12 myoblast cells (ATCC CRL-1772) are seeded into 6-well plates at a density of 170 000 cells per well and cultured in a DMEM medium containing glucose in a proportion of 4.5 g/l and supplemented with fetal calf serum (10%) and with antibiotics (penicillin and streptomycin). Forty-eight hours later, the myoblasts are induced to differentiate by partial serum depletion (2% instead of 10%) for 5 days. The cells are then placed in a medium which is glucose-depleted (DMEM containing 1 g/l of glucose) and serum-free in the presence of the test molecules or of the references (100 ng/ml IGF-1 or 10 μM 20E) for 2 h. At the end of the experiment, the cells are lysed in a commercial lysis buffer (Invitrogen FNN0011) supplemented with a commercial mixture of anti-proteases (Roche 05056489001). After centrifugation, the cytoplasmic fraction containing the soluble proteins is kept and the protein concentration is determined using a commercial kit (Biorad 500-0114), the principle of which is composed of assaying by the Lowry method. The assaying of the S6 kinase phosphorylation is carried out using a commercial ELISA (Enzyme Linked ImmunoSorbent Assay) kit (Cell signaling 7063). Briefly, 50 μg of protein lysate are deposited in the wells of a 96-well microplate and incubated overnight at 4° C. with the solution of antigen specific for the pS6 kinase threonine 389 antibody. The binding of the antigen to the bottom of the wells is done electrostatically. The solution of antibody to be assayed (pS6K T389) is then incubated at 37° C. in the wells for 2 hours. The antibodies bind specifically to the antigen. The wells are then washed with washing buffer in order to remove the antigen-specific primary antibodies to be assayed which are in excess. The third step consists in binding the detection antibody. The solution of detection antibodies is incubated at 37° C. in the wells for 1 hour. The wells are then washed in order to remove the excess detection antibodies. It should be noted that the detection antibodies are coupled to an enzyme which, in the presence of its substrate, converts it into a reaction product that can be detected and measured by virtue of the appearance of a coloration. […] The appearance of a blue coloration in the substrate indicates the presence of the antibody to be assayed. In order to prevent any saturation phenomenon, a stop solution (generally containing […]) is added and brings about a change in coloration, which goes from blue to yellow. The strength thereof is proportional to the amount of enzyme present and thus to the concentration of antibody sought. The strength of the signal is measured using spectrophotometry at a wavelength of 450 nm.

Protocol for in vivo: as §1

A word on the AUC: it is the area under the concentration-time curve, a measure of exposure. Low values mean less exposure, high ones more exposure. Usually Cmax stands for the highest concentration seen after dosing. In general, Tmax refers to the time from dosing to the highest level. `C/C(=N/OCCN1CCOCC1)[C@H]1CC[C@@]2(O)C3=CC(=O)[C@@H]4C[C@@H](O)[C@@H](O)C[C@]4(C)C3CC[C@]12C` (stereo partly drawn) [Compound 31, (2S,3R,5R,10R,13R,14S,17S)-2,3,14-trihydroxy-10,13-dimethyl-17-(C-methyl-N-(2-morpholinoethoxy)carbonimidoyl)-2,3,4,5,9,11,12,15,16,17-decahydro-1H-cyclopenta[a]phenanthren-6-one]: the mrna remaining at 10 µM in series [1] was under 70%. In series [2], the “Cexp (coefficient of exposure)” value is given as 3.7 and the “plasma exposure compared with 20E” value is reported as “better plasma exposure”. For the same compound, in “in vivo”, the AUC was determined as 281 ng·h/mL, the maximum concentration (Cmax) came out at 105 ng/mL and the time to peak (Tmax) turned out to be 15 min.

The compound `COCCN(C)C(C)[C@H]1CC[C@@]2(O)C3=CC(=O)[C@@H]4C[C@@H](O)[C@@H](O)C[C@]4(C)C3CC[C@]12C` (stereo partly drawn) [Compound 76, (2S,3R,5R,10R,13R,14S,17S)-2,3,14-trihydroxy-17-[1-(2-methoxyethyl(methyl)amino)ethyl]-10,13-dimethyl-2,3,4,5,9,11,12,15,16,17-decahydro-1H-cyclopenta[a]phenanthren-6-one] gave a mrna remaining at 10 µM in series [1] of under 70%. In series [3], the activity at 10 µM is 110 to 129% and the activity is about 120%.

Compound `CC(NCC1CCCO1)[C@H]1CC[C@@]2(O)C3=CC(=O)[C@@H]4C[C@@H](O)[C@@H](O)C[C@]4(C)C3CC[C@]12C` (stereo partly drawn) [Compound 46, (2S,3R,5R,10R,13R,14S,17S)-2,3,14-trihydroxy-10,13-dimethyl-17-[1-(tetrahydrofuran-2-ylmethylamino)ethyl]-2,3,4,5,9,11,12,15,16,17-decahydro-1H-cyclopenta[a]phenanthren-6-one] registered a mrna remaining at 10 µM in series [1] of under 70%. In addition, in series [3], the activity at 10 µM is 110 to 129% and the activity is about 120%. In series [2], the “Cexp (coefficient of exposure)” value is listed as 2.6 and the “plasma exposure compared with 20E” value is reported as “better plasma exposure”. Also, in “in vivo”, the AUC stood at 202 ng·h/mL, the peak level (Cmax) was 40 ng/mL and the Tmax came to 15 min.

With `C=CCCC(=O)N(CCOC)C(C)[C@H]1CC[C@@]2(O)C3=CC(=O)[C@@H]4C[C@@H](O)[C@@H](O)C[C@]4(C)C3CC[C@]12C` (stereo partly drawn) [Compound 52, N-(2-methoxyethyl)-N-[1-[(2S,3R,5R,10R,13R,14S,17S)-2,3,14-trihydroxy-10,13-dimethyl-6-oxo-2,3,4,5,9,11,12,15,16,17-decahydro-1H-cyclopenta[a]phenanthren-17-yl]ethyl]pent-4-enamide], the mrna remaining at 10 µM in series [1] was under 70%. In addition, in series [3], the activity at 10 µM lay within 110 to 129% and the activity is about 120%.

In series [1], `COCCN(C(=O)COC)C(C)[C@H]1CC[C@@]2(O)C3=CC(=O)[C@@H]4C[C@@H](O)[C@@H](O)C[C@]4(C)C3CC[C@]12C` (stereo partly drawn) [Compound 41, 2-methoxy-N-(2-methoxyethyl)-N-[1-[(2S,3R,5R,10R,13R,14S,17S)-2,3,14-trihydroxy-10,13-dimethyl-6-oxo-2,3,4,5,9,11,12,15,16,17-decahydro-1H-cyclopenta[a]phenanthren-17-yl]ethyl]acetamide] showed a mrna remaining at 10 µM of under 70%. Further, in series [3], the activity at 10 µM was in the range of 110 to 129% and the activity was about 120%.

For the compound `CC([C@H]1CC[C@@]2(O)C3=CC(=O)[C@@H]4C[C@@H](O)[C@@H](O)C[C@]4(C)C3CC[C@]12C)N(CC1CCCO1)C(=O)c1ccco1` (stereo partly drawn) [Compound 63, N-(tetrahydrofuran-2-ylmethyl)-N-[1-[(2S,3R,5R,10R,13R,14S,17S)-2,3,14-trihydroxy-10,13-dimethyl-6-oxo-2,3,4,5,9,11,12,15,16,17-decahydro-1H-cyclopenta[a]phenanthren-17-yl]ethyl]furan-2-carboxamide], in series [1], the mrna remaining at 10 µM is under 70%. Further, in series [3], the activity at 10 µM fell in the range of 110 to 129% and the activity was about 120%.

In series [1], `C[C@]12C[C@H](O)[C@H](O)C[C@H]1C(=O)C=C1C2CC[C@]2(C)[C@@H](C(=O)CSCCO)CC[C@@]12O` (stereo partly drawn) [Compound 94, (2S,3R,5R,10R,13R,14S,17S)-2,3,14-trihydroxy-17-[2-(2-hydroxyethylsulfanyl)acetyl]-10,13-dimethyl-2,3,4,5,9,11,12,15,16,17-decahydro-1H-cyclopenta[a]phenanthren-6-one] showed a mrna remaining at 10 µM of under 70%. In series [3], the activity at 10 µM is over 130% and the activity lay within 130 to 140%.

With `C[C@]12C[C@H](O)[C@H](O)C[C@H]1C(=O)C=C1C2CC[C@]2(C)[C@@H](C(=O)CN3CCC(CCO)CC3)CC[C@@]12O` (stereo partly drawn) [Compound 89, (2S,3R,5R,10R,13R,14S,17S)-2,3,14-trihydroxy-17-[2-[4-(2-hydroxyethyl)-1-piperidyl]acetyl]-10,13-dimethyl-2,3,4,5,9,11,12,15,16,17-decahydro-1H-cyclopenta[a]phenanthren-6-one], the mrna remaining at 10 µM in series [1] was under 70%. For the same compound, in series [3], the activity at 10 µM was over 130% and the activity lay in the range of 130 to 140%.
